Data published in PubChem BioAssay (NCI).
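1) Cells in 96-well plates. 2) Compound, 48 h, 5 concentrations. 3) Linear interpolation between surrounding doses. 4) Unreached endpoint = highest concentration. Here, GI50 denotes the concentration required for 50% inhibition of growth. TGI denotes the concentration required for complete inhibition of growth.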 Where a SMILES comes first, the peptide text is derived from it. Bridges are numbered along the chain shown (N, C = ends). Roman numbers before positions name the chains, in order. [ ]: non-standard residue; d: D form. The star is where a group is joined. Quinoxaline2carbonyl = O=C(c1cnc2ccccc2n1)*; NMeV = CN[CH](C(=O)O)C(C)C; NMeC = CN[CH](CS)C(=O)O

Assays:
Experiment in all cases: NCI anticancer screen, dose series, 48 h
[1] = test system: MCF7 breast
[2] = test system: OVCAR-4 ovarian
[3] = test system: A549 NSCLC
[4] = test system: HOP-62 NSCLC
[5] = test system: SK-MEL-2 melanoma
[6] = test system: SN12C renal
[7] = test system: NCI/ADR-RES ovarian
[8] = test system: MDA-MB-435

Row | Structure (SMILES) | GI50 [1] [µM] | TGI [1] [µM] | GI50 [2] [µM] | TGI [2] [µM] | GI50 [3] [µM] | TGI [3] [µM] | GI50 [4] [µM] | TGI [4] [µM] | GI50 [5] [µM] | TGI [5] [µM] | GI50 [6] [µM] | TGI [6] [µM] | GI50 [7] [µM] | TGI [7] [µM] | GI50 [8] [µM] | TGI [8] [µM]
1 | COc1ccc(/C=N/NC(=O)Cn2c(-c3ccc(S(C)(=O)=O)cc3)nc3cc(Cl)ccc32)cc1 | 1.92 | > 50 | 2.53 | > 50 | 1.97 | > 50 | 1.42 | > 50 | 1.13 | > 50 | 2.59 | > 50 | 0.956 | > 50 | – | –
2 | COc1cc(/C=C/[N+](=O)[O-])cc(Br)c1OC | 1.93 | 7.43 | 7.65 | 20.8 | 7.84 | 22 | 3.32 | 10.1 | 2.67 | 5.71 | 3.94 | 13.1 | 3.62 | 19.5 | 2.33 | 6.15
3 | CC(C)(C)c1ccc(C(=O)Nc2sc3c(c2C(N)=O)CCC(=O)C3)cc1 | 0.402 | 2.96 | 0.354 | 1.27 | 0.688 | 3.28 | 2.38 | 6.62 | 1.9 | 4.73 | 0.654 | 2.05 | 1.47 | 5.53 | 1.67 | 3.7
4 | CC1NC(=O)C(NC(=O)c2cnc3ccccc3n2)COC(=O)C(C(C)C)N(C)C(=O)C2CSSCC(C(=O)N(C)C(C(C)C)C(=O)OCC(NC(=O)c3cnc4ccccc4n3)C(=O)NC(C)C(=O)N2C)N(C)C1=O (configuration not stated) (I: Quinoxaline2carbonyl-SA[NMeC][NMeV] / II: Quinoxaline2carbonyl-SA[NMeC][NMeV]; ester I:1-II:C, I:C-II:1; disulfide I:3-II:3; configuration not given here) | – | < 0.01 | – | 0.254 | – | 2.78 | – | 2.27 | – | < 0.01 | – | – | – | 0.662 | – | < 0.01
5 | CC(C)(C)CN1CCn2c(nc3c(N)nccc32)S1 | 3.97 | 37 | 13.6 | 40.1 | 8.09 | 44.4 | 17 | > 100 | 69.3 | > 100 | 6.55 | > 100 | 17.1 | > 100 | 6.67 | 86.1
6 | COc1ccc2cc(-c3c(-c4ccncc4)nc(-c4ccc(S(C)=O)cc4)n3C)ccc2c1 (configuration not stated) | > 19.6 | > 25 | 20.6 | > 25 | > 25 | > 25 | > 21.1 | > 25 | > 25 | > 25 | 18 | > 25 | > 22.9 | > 25 | 14.6 | > 25
7 | N#CN1CC[C@H](C(=O)Nc2ncc(-c3ccncc3)s2)C1 | < 0.0109 | > 70.2 | < 0.027 | 7.07 | 0.262 | > 100 | 0.0689 | 3.92 | < 0.01 | 0.0976 | < 0.0277 | 38.4 | < 0.0242 | > 100 | < 0.0148 | 5.52
8 | Cc1ccc(C2=Nc3ccccc3SC(c3cccc([N+](=O)[O-])c3)C2)cc1 (configuration not stated) | – | > 100 | – | > 100 | – | > 100 | – | > 100 | – | > 100 | – | > 100 | – | > 100 | – | 79.2
9 | CSC(=S)N/N=C(\C)c1cccc(C)n1 | – | > 13.2 | – | 19.5 | – | 29.1 | – | 6.98 | – | 16.5 | – | 21.9 | – | > 36.3 | – | > 35.7
10 | C[CH2][Pb]([CH2]C)([CH2]C)[O]C(=O)c1ccc2ccccc2n1 | – | – | > 10 | > 10 | > 10 | > 10 | > 10 | > 10 | > 10 | > 10 | > 10 | > 10 | > 10 | > 10 | > 10 | > 10
11 | CCC1(O)C(=O)OCc2c1cc1n(c2=O)Cc2cc3cc(N)ccc3nc2-1 (configuration not stated) | – | > 54.3 | – | > 22 | – | 2.41 | – | 0.357 | – | 0.826 | – | 0.697 | – | 0.266 | – | –
12 | Cc1c(C2=C(c3cn(C)c4ccccc34)C(=O)NC2=O)c2ccccc2n1C | 0.997 | > 25 | 9.22 | > 25 | 1.74 | > 25 | 2.72 | > 25 | 1.93 | 24.3 | 15.5 | > 25 | 3.65 | > 25 | – | –
13 | CN1CCN(Cc2ccc(NC(=O)c3[nH]ncc3Nc3ncnc4sc5c(c34)CCCC5)cc2)CC1 | – | – | 0.327 | 1.84 | – | – | 0.286 | 1.45 | 0.665 | 3.22 | 0.0425 | 1.22 | – | – | 0.291 | 1.71
14 | COc1ccc2c(c1)OC1=C(C(=O)OC1)C2c1cc(OC)c2c(c1)OCO2 (configuration not stated) | 0.0342 | > 100 | 0.0597 | > 100 | 0.0459 | > 100 | 0.0411 | > 100 | 0.0405 | > 100 | 0.102 | > 100 | – | – | < 0.0122 | 0.0371
15 | O=C([CH-]C(=O)c1ccccc1)c1ccccc1.O=C([CH-]C(=O)c1ccccc1)c1ccccc1.[OH-].[OH-].[Ti+4] | – | – | – | – | > 100 | > 100 | 27.1 | > 100 | 76.5 | > 100 | > 100 | > 100 | – | – | – | –
16 | COc1ccc(C2[C@@H](Cl)C(=O)N2c2cc(OC)c(OC)c(OC)c2)cc1Cl (some centres not stated) | 0.0367 | > 100 | 0.837 | > 100 | 0.364 | > 100 | 0.18 | > 100 | 0.177 | 22.5 | 0.414 | > 100 | 0.0692 | > 100 | – | –
17 | BrCc1ccc(CBr)cc1 | 1.89 | > 21.7 | 8.96 | 22.4 | 21.7 | 76.8 | 4.23 | 9.68 | – | – | 2.2 | 6.27 | 6.95 | > 21.1 | 5.56 | 15.6
